Source: patent US10780090B2, “Heteroaryl compounds useful as inhibitors of SUMO activating enzyme” (Millennium Pharmaceuticals, Inc., priority 2014, dated 2020)
Read-outs that look alike come from different tables or passages of the source.

Molecular target: recombinant human SAE enzyme (Homo sapiens (Human), UniProt Q9UBT2)
Experiment: SAE HTRF enzyme assay
Type: biochemical
Conditions: for inhibition at 0.111 µM: read-out: Percent Inhibition
Outline: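 First, recombinant human SAE (0.11 nM) transfers Sumo-Flag onto Ubc9-GST using 0.5 μM ATP for 105 min at 24° C. Next, EDTA-containing detection buffer with labelled anti-Flag and anti-GST antibodies is added for 2 h. Finally, FRET is quantified and percent inhibition or IC50 derived.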

[1] = SAE inhibition at compound concentration 0.111 μM
[2] = SAE inhibition, class symbols, legend in nM

Sequence of recombinant human SAE enzyme (Q9UBT2 whole entry): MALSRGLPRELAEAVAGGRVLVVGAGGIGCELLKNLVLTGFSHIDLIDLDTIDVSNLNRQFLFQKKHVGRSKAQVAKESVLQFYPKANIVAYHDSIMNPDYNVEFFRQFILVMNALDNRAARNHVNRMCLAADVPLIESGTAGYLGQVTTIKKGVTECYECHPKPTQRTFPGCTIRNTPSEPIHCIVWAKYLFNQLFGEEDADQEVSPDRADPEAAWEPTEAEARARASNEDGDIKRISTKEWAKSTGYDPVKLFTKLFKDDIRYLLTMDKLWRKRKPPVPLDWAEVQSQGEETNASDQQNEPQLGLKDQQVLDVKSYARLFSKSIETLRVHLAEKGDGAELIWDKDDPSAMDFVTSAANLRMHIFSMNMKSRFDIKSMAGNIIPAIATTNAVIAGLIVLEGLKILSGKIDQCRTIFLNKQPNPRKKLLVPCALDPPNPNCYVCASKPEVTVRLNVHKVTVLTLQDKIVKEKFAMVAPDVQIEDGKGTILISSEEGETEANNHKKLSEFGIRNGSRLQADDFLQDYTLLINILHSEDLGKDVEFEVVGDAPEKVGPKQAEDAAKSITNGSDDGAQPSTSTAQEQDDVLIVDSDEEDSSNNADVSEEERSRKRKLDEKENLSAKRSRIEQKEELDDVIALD
Sequence of recombinant human SAE enzyme (Q9UBE0 whole entry partner): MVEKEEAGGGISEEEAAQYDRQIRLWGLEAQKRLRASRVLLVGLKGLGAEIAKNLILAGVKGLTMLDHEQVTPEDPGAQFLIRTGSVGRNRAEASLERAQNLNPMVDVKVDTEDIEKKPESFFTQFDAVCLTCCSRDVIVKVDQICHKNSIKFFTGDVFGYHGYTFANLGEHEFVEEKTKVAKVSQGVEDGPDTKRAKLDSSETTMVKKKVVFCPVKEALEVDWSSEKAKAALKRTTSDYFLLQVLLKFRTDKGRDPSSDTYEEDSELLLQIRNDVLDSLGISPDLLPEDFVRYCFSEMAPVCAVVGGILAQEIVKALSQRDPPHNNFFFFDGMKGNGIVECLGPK

NS(=O)(=O)OC[C@H]1C[C@@H](Nc2ncncc2C(=O)c2ccc([C@@H]3OCCCc4ccc(Cl)cc43)s2)C[C@@H]1O (single isomer, unassigned) [I-343b, [(1R,2S,4R)-4-{[5-({5-[(1R)-8-chloro-1,3,4,5-tetrahydro-2-benzoxepin-1-yl]-2-thienyl}carbonyl)pyrimidin-4-yl]amino}-2-hydroxycyclopentyl]methyl sulfamate or [(1R,2S,4R)-4-{[5-({5-[(1S)-8-chloro-1,3,4,5-tetrahydro-2-benzoxepin-1-yl]-2-thienyl}carbonyl)pyrimidin-4-yl]amino}-2-hydroxycyclopentyl]methyl sulfamate]
Percent Inhibition [1]: 84%
IC50 [2]: 10 to 100 nM

Cc1nc2c(s1)CCO[C@H]2c1cc(C(=O)c2cncnc2N[C@@H]2C[C@H](COS(N)(=O)=O)[C@@H](O)C2)sc1C (single isomer, unassigned) [I-287b, [(1R,2S,4R)-2-hydroxy-4-{[5-({5-methyl-4-[(4S)-2-methyl-6,7-dihydro-4H-pyrano[3,4-d][1,3]thiazol-4-yl]-2-thienyl}carbonyl)pyrimidin-4-yl]amino}cyclopentyl]methyl sulfamate or [(1R,2S,4R)-2-hydroxy-4-{[5-({5-methyl-4-[(4R)-2-methyl-6,7-dihydro-4H-pyrano[3,4-d][1,3]thiazol-4-yl]-2-thienyl}carbonyl)pyrimidin-4-yl]amino}cyclopentyl]methyl sulfamate]
Percent Inhibition [1]: 98%
IC50 [2]: < 10 nM

NS(=O)(=O)OC[C@H]1C[C@@H](Nc2ncncc2C(=O)c2cc(Cc3cccc(Cl)c3)c(Br)s2)C[C@@H]1O [I-118, {(1R,2S,4R)-4-[(5-{[5-bromo-4-(3-chlorobenzyl)-2-thienyl]carbonyl}pyrimidin-4-yl)amino]-2-hydroxycyclopentyl}methyl sulfamate]
inhibition at 0.111 µM (Concentration 0.111 μM): 97%
IC50 (class symbols A/B/C): < 10 nM

N[C@H](c1cccc(Cl)n1)c1cc(C(=O)c2cncnc2N[C@@H]2C[C@H](COS(N)(=O)=O)[C@@H](O)C2)sc1Cl (single isomer, unassigned) [I-25a, [(1R,2S,4R)-4-{[5-({4-[(S)-amino(6-chloropyridin-2-yl)methyl]-5-chloro-2-thienyl}carbonyl)pyrimidin-4-yl]amino}-2-hydroxycyclopentyl]methyl sulfamate or [(1R,2S,4R)-4-{[5-({4-[(R)-amino(6-chloropyridin-2-yl)methyl]-5-chloro-2-thienyl}carbonyl)pyrimidin-4-yl]amino}-2-hydroxycyclopentyl]methyl sulfamate]
Percent Inhibition (Concentration 0.111 μM): 97
IC50 (class symbols A/B/C): < 10 nM

C[C@@H](c1cccc(Cl)c1)c1csc(C(=O)c2cncnc2N[C@@H]2C[C@H](COS(N)(=O)=O)[C@@H](O)C2)c1 (mixture of isomers) [I-117, [(1R,2S,4R)-4-{[5-({4-[(1S)-1-(3-chlorophenyl)ethyl]-2-thienyl}carbonyl)pyrimidin-4-yl]amino}-2-hydroxycyclopentyl]methyl sulfamate and [(1R,2S,4R)-4-{[5-({4-[(1R)-1-(3-chlorophenyl)ethyl]-2-thienyl}carbonyl)pyrimidin-4-yl]amino}-2-hydroxycyclopentyl]methyl sulfamate]
Percent Inhibition (Concentration 0.111 μM): 93
IC50 (class symbols A/B/C): < 10 nM

NS(=O)(=O)OC[C@H]1C[C@@H](Nc2ncncc2C(=O)c2cc([C@H](O)c3ccc(Cl)s3)c(Cl)s2)C[C@@H]1O (mixture of isomers) [I-103, [(1R,2S,4R)-4-{[5-({5-chloro-4-[(S)-(5-chloro-2-thienyl)(hydroxy)methyl]-2-thienyl}carbonyl)pyrimidin-4-yl]amino}-2-hydroxycyclopentyl]methyl sulfamate and [(1R,2S,4R)-4-{[5-({5-chloro-4-[(R)-(5-chloro-2-thienyl)(hydroxy)methyl]-2-thienyl}carbonyl)pyrimidin-4-yl]amino}-2-hydroxycyclopentyl]methyl sulfamate]
Percent Inhibition (Concentration 0.111 μM): 96
IC50 (class symbols A/B/C): < 10 nM

COc1ccc2c(c1)N(Cc1cc(C(=O)c3cncnc3N[C@@H]3C[C@H](COS(N)(=O)=O)[C@@H](O)C3)sc1C)CC2 [I-126, [(1R,2S,4R)-2-hydroxy-4-{[5-({4-[(6-methoxy-2,3-dihydro-1H-indol-1-yl)methyl]-5-methyl-2-thienyl}carbonyl)pyrimidin-4-yl]amino}cyclopentyl]methyl sulfamate]
inhibition at 0.111 µM (Concentration 0.111 μM): 98%
IC50 (class symbols A/B/C): < 10 nM

Cc1sc(C(=O)c2cncnc2N[C@@H]2C[C@H](COS(N)(=O)=O)[C@@H](OC(=O)[C@@H](N)C(C)C)C2)cc1[C@@H]1OCCc2ccc(Cl)cc21 [I-338, (1S,2R,4R)-4-{[5-({4-[(1R)-7-Chloro-3,4-dihydro-1H-isochromen-1-yl]-5-methyl-2-thienyl}carbonyl)pyrimidin-4-yl]amino}-2-[(sulfamoyloxy)methyl]cyclopentyl (2S)-2-amino-3-methylbutanoate]
inhibition at 0.111 µM [1]: 56%
IC50 [2]: 10 to 100 nM

NS(=O)(=O)OC[C@H]1C[C@@H](Nc2ncncc2C(=O)c2cc([C@H](O)c3cccc(Cl)n3)c(Cl)s2)C[C@@H]1O (single isomer, unassigned) [I-2b, [(1R,2S,4R)-4-{[5-({5-chloro-4-[(S)-(6-chloropyridin-2-yl)(hydroxy)methyl]-2-thienyl}carbonyl)pyrimidin-4-yl]amino}-2-hydroxycyclopentyl]methyl sulfamate or [(1R,2S,4R)-4-{[5-({5-chloro-4-[(R)-(6-chloropyridin-2-yl)(hydroxy)methyl]-2-thienyl}carbonyl)pyrimidin-4-yl]amino}-2-hydroxycyclopentyl]methyl sulfamate]
Percent Inhibition (Concentration 0.111 μM): 61
IC50 (class symbols A/B/C): 10 to 100 nM

NS(=O)(=O)OC[C@H]1C[C@@H](Nc2ncncc2C(=O)c2cc(C3NCCc4ccc(Cl)cc43)cs2)C[C@@H]1O (single isomer, unassigned) [I-274b, [(1R,2S,4R)-4-{[5-({4-[(1R)-7-chloro-1,2,3,4-tetrahydroisoquinolin-1-yl]-2-thienyl}carbonyl)pyrimidin-4-yl]amino}-2-hydroxycyclopentyl]methyl sulfamate or [(1R,2S,4R)-4-{[5-({4-[(1S)-7-chloro-1,2,3,4-tetrahydroisoquinolin-1-yl]-2-thienyl}carbonyl)pyrimidin-4-yl]amino}-2-hydroxycyclopentyl]methyl sulfamate]
Percent Inhibition (Concentration 0.111 μM): 81
IC50 (class symbols A/B/C): 10 to 100 nM

NS(=O)(=O)OC[C@H]1C[C@@H](Nc2ncncc2C(=O)c2cc([C@@H]3OCCc4cccnc43)c(Cl)s2)C[C@@H]1O (single isomer, unassigned) [I-266b, [(1R,2S,4R)-4-{[5-({5-chloro-4-[(8S)-5,8-dihydro-6H-pyrano[3,4-b]pyridin-8-yl]-2-thienyl}carbonyl)pyrimidin-4-yl]amino}-2-hydroxycyclopentyl]methyl sulfamate or [(1R,2S,4R)-4-{[5-({5-chloro-4-[(8R)-5,8-dihydro-6H-pyrano[3,4-b]pyridin-8-yl]-2-thienyl}carbonyl)pyrimidin-4-yl]amino}-2-hydroxycyclopentyl]methyl sulfamate]
Percent Inhibition (Concentration 0.111 μM): 100
IC50 (class symbols A/B/C): < 10 nM

Cc1sc(C(=O)c2cncnc2N[C@@H]2C[C@H](COS(N)(=O)=O)[C@@H](O)C2)cc1Cn1cc(Cl)cn1 [I-55, [(1R,2S,4R)-4-{[5-({4-[(4-chloro-1H-pyrazol-1-yl)methyl]-5-methyl-2-thienyl}carbonyl)pyrimidin-4-yl]amino}-2-hydroxycyclopentyl]methyl sulfamate]
inhibition at 0.111 µM (Concentration 0.111 μM): 97%

NS(=O)(=O)OC[C@H]1C[C@@H](Nc2ncncc2C(=O)c2cc([C@H](O)c3cccc(Cl)n3)c(Cl)s2)C[C@@H]1O (single isomer, unassigned) [I-2a, [(1R,2S,4R)-4-{[5-({5-chloro-4-[(S)-(6-chloropyridin-2-yl)(hydroxy)methyl]-2-thienyl}carbonyl)pyrimidin-4-yl]amino}-2-hydroxycyclopentyl]methyl sulfamate or [(1R,2S,4R)-4-{[5-({5-chloro-4-[(R)-(6-chloropyridin-2-yl)(hydroxy)methyl]-2-thienyl}carbonyl)pyrimidin-4-yl]amino}-2-hydroxycyclopentyl]methyl sulfamate]
Percent Inhibition (Concentration 0.111 μM): 99
IC50 (class symbols A/B/C): < 10 nM

Cc1nc2c(s1)[C@H](c1cc(C(=O)c3cncnc3N[C@@H]3C[C@H](COS(N)(=O)=O)[C@@H](O)C3)sc1C)OCC2 (single isomer, unassigned) [I-305a, [(1R,2S,4R)-2-hydroxy-4-{[5-({5-methyl-4-[(4S)-2-methyl-6,7-dihydro-4H-pyrano[4,3-d][1,3]thiazol-4-yl]-2-thienyl}carbonyl)pyrimidin-4-yl]amino}cyclopentyl]methyl sulfamate or [(1R,2S,4R)-2-hydroxy-4-{[5-({5-methyl-4-[(4R)-2-methyl-6,7-dihydro-4H-pyrano[4,3-d][1,3]thiazol-4-yl]-2-thienyl}carbonyl)pyrimidin-4-yl]amino}cyclopentyl]methyl sulfamate]
Percent Inhibition [1]: 28%
IC50 [2]: 100 to 1000 nM

NS(=O)(=O)OC[C@H]1C[C@@H](Nc2ncncc2C(=O)c2cc([C@H](O)c3cccc(Cl)c3)c(Cl)s2)C[C@@H]1O (single isomer, unassigned) [I-9b, [(1R,2S,4R)-4-{[5-({5-chloro-4-[(R)-(3-chlorophenyl)(hydroxy)methyl]-2-thienyl}carbonyl)pyrimidin-4-yl]amino}-2-hydroxycyclopentyl]methyl sulfamate or [(1R,2S,4R)-4-{[5-({5-chloro-4-[(S)-(3-chlorophenyl)(hydroxy)methyl]-2-thienyl}carbonyl)pyrimidin-4-yl]amino}-2-hydroxycyclopentyl]methyl sulfamate]
Percent Inhibition (Concentration 0.111 μM): 97
IC50 (class symbols A/B/C): < 10 nM
